How the values were obtained:
Assay in all cases: Kinase selectivity, scanMAX Kinase assay panel (DiscoverX), % control at 1 uM
Type in all cases: binding
[1] = target: T1, scanMAX Kinase assay panel (Homo sapiens, UniProt P06239); settings: LCK; 1 uM; read-out: Percent Control (%)
T1 construct: purchased DiscoverX
In short: (§1)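 Single-point screen at 1 uM compound in DMSO. Lower % control means stronger inhibition, with the cutoff for activity set at <35%.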

[2] = target: T2, scanMAX Kinase assay panel (Homo sapiens, UniProt Q9NRH2); settings: SNRK; 1 uM; read-out: Percent Control (%)
T2 construct: purchased DiscoverX
T2 sequence (Q9NRH2 1-765): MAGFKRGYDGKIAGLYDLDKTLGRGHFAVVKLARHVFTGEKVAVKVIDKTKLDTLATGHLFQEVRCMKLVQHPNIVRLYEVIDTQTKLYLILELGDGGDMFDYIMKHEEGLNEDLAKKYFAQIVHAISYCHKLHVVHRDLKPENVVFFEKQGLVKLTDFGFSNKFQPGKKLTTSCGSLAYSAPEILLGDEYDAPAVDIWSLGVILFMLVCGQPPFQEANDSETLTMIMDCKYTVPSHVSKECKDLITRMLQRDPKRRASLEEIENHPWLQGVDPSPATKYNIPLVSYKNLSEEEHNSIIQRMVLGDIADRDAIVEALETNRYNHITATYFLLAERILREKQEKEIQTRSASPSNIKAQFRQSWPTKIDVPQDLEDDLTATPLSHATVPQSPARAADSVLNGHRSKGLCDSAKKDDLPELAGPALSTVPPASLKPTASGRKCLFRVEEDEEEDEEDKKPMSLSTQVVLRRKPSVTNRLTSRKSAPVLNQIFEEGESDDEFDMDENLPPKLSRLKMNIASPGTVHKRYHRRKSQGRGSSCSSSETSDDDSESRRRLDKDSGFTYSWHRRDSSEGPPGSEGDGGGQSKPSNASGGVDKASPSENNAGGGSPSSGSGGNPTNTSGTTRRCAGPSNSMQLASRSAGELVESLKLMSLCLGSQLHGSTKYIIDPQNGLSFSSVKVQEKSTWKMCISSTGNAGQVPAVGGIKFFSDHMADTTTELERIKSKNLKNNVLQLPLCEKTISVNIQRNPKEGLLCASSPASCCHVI
In short: as §1

[3] = target: T3, scanMAX Kinase assay panel (Homo sapiens, UniProt Q9UPZ9); settings: ICK; 1 uM; read-out: Percent Control (%)
T3 construct: purchased DiscoverX
T3 sequence (Q9UPZ9 1-632): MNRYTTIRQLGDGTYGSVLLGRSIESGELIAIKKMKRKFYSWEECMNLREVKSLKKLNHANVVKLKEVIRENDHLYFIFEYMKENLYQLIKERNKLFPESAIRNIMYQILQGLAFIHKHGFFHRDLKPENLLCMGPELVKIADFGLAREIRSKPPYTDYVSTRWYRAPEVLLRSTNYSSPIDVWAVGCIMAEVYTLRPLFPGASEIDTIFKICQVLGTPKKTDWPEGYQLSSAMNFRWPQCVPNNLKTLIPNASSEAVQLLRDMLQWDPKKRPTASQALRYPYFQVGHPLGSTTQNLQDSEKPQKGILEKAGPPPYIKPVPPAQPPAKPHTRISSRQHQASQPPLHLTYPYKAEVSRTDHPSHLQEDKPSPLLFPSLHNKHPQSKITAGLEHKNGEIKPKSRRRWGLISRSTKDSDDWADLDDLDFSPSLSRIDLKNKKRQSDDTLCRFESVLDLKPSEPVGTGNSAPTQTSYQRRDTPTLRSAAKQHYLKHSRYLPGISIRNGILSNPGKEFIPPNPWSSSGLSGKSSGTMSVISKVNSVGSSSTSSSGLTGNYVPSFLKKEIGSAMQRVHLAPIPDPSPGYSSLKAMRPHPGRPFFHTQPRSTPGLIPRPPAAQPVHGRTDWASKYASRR
In short: as §1

[4] = target: T4, scanMAX Kinase assay panel (Homo sapiens, UniProt Q09013); settings: DMPK; 1 uM; read-out: Percent Control (%)
T4 construct: purchased DiscoverX
T4 sequence (Q09013 1-629): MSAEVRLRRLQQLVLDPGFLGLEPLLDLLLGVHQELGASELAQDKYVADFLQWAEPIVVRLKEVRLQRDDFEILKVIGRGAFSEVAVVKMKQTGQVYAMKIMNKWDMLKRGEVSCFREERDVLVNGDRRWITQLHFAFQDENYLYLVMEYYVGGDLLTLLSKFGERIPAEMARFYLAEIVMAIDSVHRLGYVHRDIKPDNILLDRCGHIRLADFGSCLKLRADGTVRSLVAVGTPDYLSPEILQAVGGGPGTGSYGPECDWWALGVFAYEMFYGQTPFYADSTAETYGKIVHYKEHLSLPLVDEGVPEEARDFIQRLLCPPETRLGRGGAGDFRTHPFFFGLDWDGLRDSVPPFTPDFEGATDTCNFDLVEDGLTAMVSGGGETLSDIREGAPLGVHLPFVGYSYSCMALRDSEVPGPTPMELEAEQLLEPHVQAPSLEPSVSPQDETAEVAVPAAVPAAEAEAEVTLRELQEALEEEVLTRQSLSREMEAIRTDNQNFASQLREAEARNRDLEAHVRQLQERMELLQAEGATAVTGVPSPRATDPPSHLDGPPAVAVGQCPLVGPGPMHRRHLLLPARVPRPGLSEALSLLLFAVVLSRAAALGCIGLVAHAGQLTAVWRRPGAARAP
In short: as §1

T1 sequence (P06239 whole entry): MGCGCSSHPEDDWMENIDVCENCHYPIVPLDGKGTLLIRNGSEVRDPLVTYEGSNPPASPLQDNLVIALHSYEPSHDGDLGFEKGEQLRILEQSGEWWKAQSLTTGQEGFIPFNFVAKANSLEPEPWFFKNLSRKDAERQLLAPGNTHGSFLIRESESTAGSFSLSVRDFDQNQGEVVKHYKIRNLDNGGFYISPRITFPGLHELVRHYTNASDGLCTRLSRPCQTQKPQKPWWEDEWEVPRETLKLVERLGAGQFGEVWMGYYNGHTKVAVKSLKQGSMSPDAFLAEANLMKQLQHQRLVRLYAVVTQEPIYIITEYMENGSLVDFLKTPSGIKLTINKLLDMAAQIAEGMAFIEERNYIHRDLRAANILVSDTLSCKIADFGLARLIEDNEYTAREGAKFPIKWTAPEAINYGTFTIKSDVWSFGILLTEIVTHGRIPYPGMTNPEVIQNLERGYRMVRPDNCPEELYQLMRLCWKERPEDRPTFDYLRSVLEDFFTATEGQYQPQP

| Structure (SMILES) | remaining binding at 1 µM [1] | remaining binding at 1 µM [2] | remaining binding at 1 µM [3] | remaining binding at 1 µM [4] |
| --- | --- | --- | --- | --- |
| Cc1ccc(NC(=O)C2(C(=O)Nc3ccc(F)cc3)CC2)cc1C#Cc1cnc2c(Nc3cnn(C(C)C)c3)cccn12 [Example 78] | 40% | 95% | 100% | 92% |
| Cc1cn(-c2cc(NC(=O)c3ccc(C)c(C#Cc4cnc5c(Nc6cnn(C)c6)cccn45)c3)cc(C(F)(F)F)c2)cn1 [Example 12, 4-methyl-N-(3-(4-methyl-1H-imidazol-1-yl)-5-(trifluoromethyl)phenyl)-3-((8-((1-methyl-1H-pyrazol-4-yl)amino)imidazo[1,2-a]pyridin-3-yl)ethynyl)benzamide] | 0% | 100% | 100% | 96% |
| Cc1ccc(C(=O)Nc2ccc(CN3CCN(C)CC3)c(C(F)(F)F)c2)cc1C#Cc1cnc2c(Nc3cnn(C)c3)cccn12 [Example 1, 4-methyl-3-((8-((1-methyl-1H-pyrazol-4-yl)amino)imidazo[1,2-a]pyridin-3-yl)ethynyl)-N-(4-((4-methylpiperazin-1-yl)methyl)-3-(trifluoromethyl)phenyl)benzamide] | 0% | 84% | 58% | 100% |
